Measurements reported in ChEMBL document CHEMBL1201862, “PubChem BioAssay data set” (2004).
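How tested: cells in 96-well plates exposed to compound for 48 hours at five concentrations. GI50: concentration for 50% inhibition of growth.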 Active and inactive are the calls of the source. No stated cut-off is given here; in the data, active = GI50 up to about 1.1 µM and inactive = higher.

Columns and labels:
Assay in all cases: DTP human tumour cell line panel, 48 h
[1] = test system: TK-10
[2] = test system: UACC-257
[3] = test system: 786-0
[4] = test system: MCF7
[5] = test system: SNB-75
[6] = test system: T47D
[7] = test system: ACHN
[8] = test system: NCI-H460
[9] = test system: UO-31
[10] = test system: HT-29
[11] = test system: SK-MEL-5
[12] = test system: A549
[13] = test system: PC-3
[14] = test system: OVCAR-3
[15] = test system: DU-145
[16] = test system: CCRF-CEM
[17] = test system: Malme-3M
[18] = test system: K562
[19] = test system: UACC-62
[20] = test system: MOLT-4

SMILES | GI50 [1] | GI50 [2] | GI50 [3] | GI50 [4] | GI50 [5] | GI50 [6] | GI50 [7] | GI50 [8] | GI50 [9] | GI50 [10] | GI50 [11] | GI50 [12] | GI50 [13] | GI50 [14] | GI50 [15] | GI50 [16] | GI50 [17] | GI50 [18] | GI50 [19] | GI50 [20]
c1ccc(-c2nnc(-c3ccccn3)c3c2C[C@@H]2C[C@@H]4Cc5c(-c6ccccn6)nnc(-c6ccccn6)c5[C@@H]4[C@H]32)nc1 | > 100 µM (inactive) | 66.7 µM (inactive) | 33.7 µM (inactive) | 66.1 µM (inactive) | 76.6 µM (inactive) | 38.6 µM (inactive) | 24.9 µM (inactive) | 27.5 µM (inactive) | 21.7 µM (inactive) | 44.9 µM (inactive) | 27.8 µM (inactive) | 29 µM (inactive) | 41.5 µM (inactive) | 85.9 µM (inactive) | 38.8 µM (inactive) | 30.3 µM (inactive) | 75.7 µM (inactive) | 18.3 µM (inactive) | 41.7 µM (inactive) | 33.2 µM (inactive)
COC(=O)c1ccc(C)cc1C1CN=NC12Cc1c(C)cccc1C2=O (stereo not given) | 99.3 µM (inactive) | 49.7 µM (inactive) | 52.1 µM (inactive) | 0.394 µM (active) | 32 µM (inactive) | 23.7 µM (inactive) | 45.4 µM (inactive) | 64.7 µM (inactive) | 42.9 µM (inactive) | 31.1 µM (inactive) | 30 µM (inactive) | 49.4 µM (inactive) | 40.2 µM (inactive) | 27 µM (inactive) | 55.7 µM (inactive) | 53.5 µM (inactive) | 58.2 µM (inactive) | 47.5 µM (inactive) | 28.4 µM (inactive) | 41.7 µM (inactive)
Nc1nc(Cl)c2ncn(Cc3ccc(CCl)cc3)c2n1 | 16.6 µM (inactive) | 12.5 µM (inactive) | 5.31 µM (inactive) | 2.81 µM (inactive) | 23.1 µM (inactive) | 6.98 µM (inactive) | 9.62 µM (inactive) | 4.25 µM (inactive) | 11.9 µM (inactive) | 9.73 µM (inactive) | 15.3 µM (inactive) | 15.7 µM (inactive) | 7.45 µM (inactive) | 2.16 µM (inactive) | 6.59 µM (inactive) | 2.68 µM (inactive) | 11.3 µM (inactive) | 3.61 µM (inactive) | 2.23 µM (inactive) | 2.96 µM (inactive)
O=C1C(Cl)C(c2cc3cc(Br)ccc3nc2Cl)N1c1c(Cl)cccc1Cl (stereo not given) | > 25 µM (inactive) | 16.5 µM (inactive) | 12.4 µM (inactive) | 6.76 µM (inactive) | > 25 µM (inactive) | 11.6 µM (inactive) | 15.9 µM (inactive) | > 25 µM (inactive) | 1.3 µM (inactive) | > 25 µM (inactive) | 12.5 µM (inactive) | > 25 µM (inactive) | 20 µM (inactive) | 18.2 µM (inactive) | > 25 µM (inactive) | 7.53 µM (inactive) | > 25 µM (inactive) | 7.01 µM (inactive) | 17.4 µM (inactive) | 4.9 µM (inactive)
Nc1cc(Cl)cc2cc(Cl)cnc12 | > 100 µM (inactive) | > 100 µM (inactive) | > 100 µM (inactive) | > 100 µM (inactive) | 40.3 µM (inactive) | 26.4 µM (inactive) | > 100 µM (inactive) | > 100 µM (inactive) | 34.8 µM (inactive) | > 100 µM (inactive) | > 100 µM (inactive) | > 100 µM (inactive) | 72.3 µM (inactive) | > 100 µM (inactive) | > 100 µM (inactive) | 14 µM (inactive) | > 100 µM (inactive) | > 100 µM (inactive) | 75.2 µM (inactive) | 44.5 µM (inactive)
